Each structure is given as a SMILES string.

Data set [1] concerns the target T1, PI-3 kinase γ (Homo sapiens, UniProt P48736). The data set is described as follows: PI3Kγ inhibitory activity, PI3-kinase HTRF assay (inhibition ratio). It is filed as biochemical. The settings on record: 0.5 h, compound at 50 μmol/L. The procedure: For each compound synthesized in the above Examples, PI3Kγ inhibitory activity was measured.
The PI3Kγ inhibitory activity of a compound was evaluated using PI3-kinase HTRF™ assay (Millipore) according to the following procedure:
To each well of a testing plate, 5 μL of a compound solution containing 10% DMSO (200 μmol/L or 40 μmol/L as the concentration of the compound), 5 μL of a substrate solution (40 μmol/L phosphatidylinositol (4,5)-bisphosphate, 20 mmol/L MgCl2, 10 mmol/L DTT), and 5 μL of a enzyme solution (80 μg/mL PI-3 kinase γ, 10 mmol/L MgCl2, 5 mmol/L DTT) were added, and then allowed to stand for 10 minutes.
Then, 5 μL of a reaction solution (40 μmol/L ATP, 10 mmol/L MgCl2, 5 mmol/L DTT) was added thereto. After reacting for 30 minutes at room temperature, 5 μL of a solution containing EDTA and biotinylated phosphatidylinositol (3,4,5)-triphosphate were added to quench the reaction.
5 μL of a detection reagent containing a europium-labeled anti-GST antibody, the GST-tagged PH domain, and allophycocyanin-labeled streptavidin was added thereto. After 18 hours, HTRF (excitation wavelength: 330 nm, measured wavelengths: 620 nm and 665 nm) was measured.
HTRF ratio was defined as the value obtained by dividing the amount of fluorescence obtained at the measured wavelength 665 nm by the amount of fluorescence obtained at 620 nm. The HTRF ratio in the absence of a compound was defined as 100% activity and the HTRF ratio in the absence of PI-3 kinase γ was defined as 0% activity to calculate an inhibition ratio which was defined as the PI3Kγ inhibitory activity of a compound at 50 μmol/L or 10 μmol/L.

In data set [2] the target is T1, PI-3 kinase γ. The data set is described as follows: PI3Kγ inhibitory activity (Ki value). It is filed as biochemical. The note with it: test ATP concentration 10 μmol/L. As for the experimental part: The PI3Kγ inhibitory activity (Ki value) of a compound was evaluated according to the following procedure:
5 μL of a compound solution containing 10% DMSO and 200 μmol/L of a compound was changed to 5 μL of a compound solution containing 10% DMSO and either 200, 64, 20, 6.4, 2, 0.64, or 0.20 μmol/L of the compound (optionally, this is diluted to a lower concentration). Using a method similar to the method for measuring PI3Kγ inhibitory activity, inhibition ratios were measured in the presence of the compound at 50, 16, 5, 1.6, 0.5, 0.16, and 0.05 μmol/L (optionally, a lower concentration). Then an IC50 value was calculated by a logistic approximation method or the linear regression method using two concentrations that across 50% inhibition. Separately, the ATP concentration in the reaction solution (40 μmol/L ATP, 10 mmol/L MgCl2, 5 mmol/L DTT) at the time of the start of a reaction in the absence of the compound was changed to 80, 40, 20, 10, 5, 2.5, 1.25, or 0.625 μmol/L. Then, HTRF ratios were measured by a similar method. The value obtained by subtracting the HTRF ratio at each ATP concentration from the HTRF ratio in the absence of PI-3 kinase γ was defined as the value obtained by multiplying reaction rate (v) at each ATP concentration with a constant. The Michaelis-Menten constant Km was then calculated by the Lineweaver-Burk plot method. The Ki value of a compound was calculated by the following formula.
Ki=IC50 value/(1+10 μmol/L (test ATP concentration)/Km(μmol/L))

A short description of data set [3]: Metabolic stability test, pooled human liver microsome. It is filed as in vitro ADME. The settings on record: 2 μmol/L compound; human liver microsome 0.5 mg protein/mL, NADPH, 37° C. As for the experimental part:
After a subject compound was reacted for a certain time using a commercially available pooled human liver microsome, a reacted sample and an unreacted sample are compared to calculate a survival ratio, and then the degree of metabolism in the liver was evaluated.
0.2 mL of a buffer solution (50 mmol/L of Tris-HCl in pH 7.4, 150 mmol/L of potassium chloride, and 10 mmol/L of magnesium chloride) containing a human liver microsome of 0.5 mg protein/mL was reacted in the presence of 1 mmol/L NADPH at 37° C. for 0 or 30 minutes (oxidative reaction). After reacting, 50 μL of the reaction solution was added to 100 μL of a solution of methanol/acetonitrile (1/1 (v/v)), mixed, and then centrifuged at 3000 rpm for 15 minutes. The test compound in the supernatant was quantitated with LC/MS/MS. The amount of the compound at a reaction time of 0 minute was defined as 100% and, based on that, the percentage of the test compound remained after reacting for 30 minutes was calculated.

Data set [4] can be described thus: Solubility test in artificial intestinal juice pH 6.8. The settings on record: kinetic from dmso stock, artificial intestinal juice pH 6.8, 1% DMSO, 25° C. It is filed as physicochemical. As for the experimental part: The solubility of a compound was determined under a condition in which 1% DMSO was added. 10 mmol/L compound solution was prepared using DMSO, and then 6 μL of the compound solution was added to 594 μL of artificial intestinal juice in pH 6.8 (to 250 mL of 0.2 mol/L potassium dihydrogen phosphate reagent solution was added 118 mL of 0.2 mol/L NaOH reagent solution and water to provide a final volume of 1000 mL). After standing at 25° C. for 16 hours, the mixed solution was filtered with suction. The filtrate was diluted twice with methanol/water (1/1), and then a concentration in the filtration was measured with HPLC or LC/MS/MS by the absolute calibration method.

Data set [5] addresses T2, human ether-a-go-go related gene (hERG) channel (Homo sapiens, UniProt Q12809).
T2 construct: expressed in transfected cells; host or cells: HEK293
The data set is described as follows: hERG test, whole-cell patch-clamp, IKr. It is filed as cell-based. The note with it: 1 μmol/L compound; HEK293 cell expressing hERG. The text has this: For the purpose of risk evaluation of QT interval extension of electrocardiogram, the activity on delayed rectification K^+ current (IKr), which plays an important role in a cardiac ventricle repolarization process, was examined using the HEK293 cell that was made to express human ether-a-go-go related gene (hERG) channel.
Using an automatic patch-clamp system (PatchXpress 7000A, Axon Instruments Inc.), by a whole-cell patch-clamp method, after the cell was maintained at a membrane potential of −80 mV, IKr induced upon applying depolarizing stimulation of +50 mV for 2 seconds and further applying repolarizing stimulation of −50 mV for 2 seconds was recorded. After generated electric current became stable, a test substance dissolved at an intended concentration in extracellular fluid (137 mmol/L NaCl, 4 mmol/L KCl, 1.8 mmol/L CaCl2.2H2O, 1 mmol/L MgCl2.6H2O, 10 mmol/L glucose, 10 mmol/L HEPES (4-(2-hydroxyethyl)-1-piperazineethanesulfonic acid), pH=7.4) was applied to the cell for 10 minutes under room temperature condition. From the obtained IKr, the absolute value of the maximum tail current was measured using analysis software (DataXpress ver. 1, Molecular Devices Corporation) and the value of the electric current in a maintained membrane potential as baseline. Moreover, an inhibition ratio for the maximum tail current prior to the application of the test substance was calculated and then compared with a group of media-application (0.1% dimethylsulfoxide solution) to evaluate influence of the test substance on IKr.

T1 sequence (P48736 whole entry): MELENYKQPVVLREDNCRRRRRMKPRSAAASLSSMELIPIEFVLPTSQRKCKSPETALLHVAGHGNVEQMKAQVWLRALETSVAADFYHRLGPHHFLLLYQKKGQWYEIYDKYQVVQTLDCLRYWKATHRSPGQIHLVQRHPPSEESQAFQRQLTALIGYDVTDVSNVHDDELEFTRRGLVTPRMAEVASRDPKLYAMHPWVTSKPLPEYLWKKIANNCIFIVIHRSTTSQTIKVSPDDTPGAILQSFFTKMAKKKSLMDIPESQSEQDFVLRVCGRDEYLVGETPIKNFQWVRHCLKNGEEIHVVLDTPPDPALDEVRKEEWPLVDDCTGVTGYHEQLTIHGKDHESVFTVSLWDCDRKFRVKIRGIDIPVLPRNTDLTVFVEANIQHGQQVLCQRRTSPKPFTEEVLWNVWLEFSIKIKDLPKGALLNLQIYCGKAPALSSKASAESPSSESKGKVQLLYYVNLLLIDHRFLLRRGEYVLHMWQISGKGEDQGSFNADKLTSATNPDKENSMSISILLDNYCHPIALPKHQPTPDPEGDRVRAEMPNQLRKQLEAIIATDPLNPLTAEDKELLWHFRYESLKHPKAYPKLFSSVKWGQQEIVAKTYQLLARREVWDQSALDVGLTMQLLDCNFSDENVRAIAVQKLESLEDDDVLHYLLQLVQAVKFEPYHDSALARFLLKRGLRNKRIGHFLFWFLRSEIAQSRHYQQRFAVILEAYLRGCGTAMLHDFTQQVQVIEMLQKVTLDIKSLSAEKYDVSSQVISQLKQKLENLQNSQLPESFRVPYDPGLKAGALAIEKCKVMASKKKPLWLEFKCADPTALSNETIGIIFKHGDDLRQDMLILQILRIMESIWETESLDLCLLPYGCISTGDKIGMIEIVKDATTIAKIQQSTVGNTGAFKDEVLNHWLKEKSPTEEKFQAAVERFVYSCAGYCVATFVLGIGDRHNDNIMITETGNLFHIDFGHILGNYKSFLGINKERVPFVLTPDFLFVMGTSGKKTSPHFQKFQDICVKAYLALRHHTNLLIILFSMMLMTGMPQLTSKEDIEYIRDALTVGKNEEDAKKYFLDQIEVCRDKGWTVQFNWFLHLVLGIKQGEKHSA
T2 sequence (Q12809 whole entry): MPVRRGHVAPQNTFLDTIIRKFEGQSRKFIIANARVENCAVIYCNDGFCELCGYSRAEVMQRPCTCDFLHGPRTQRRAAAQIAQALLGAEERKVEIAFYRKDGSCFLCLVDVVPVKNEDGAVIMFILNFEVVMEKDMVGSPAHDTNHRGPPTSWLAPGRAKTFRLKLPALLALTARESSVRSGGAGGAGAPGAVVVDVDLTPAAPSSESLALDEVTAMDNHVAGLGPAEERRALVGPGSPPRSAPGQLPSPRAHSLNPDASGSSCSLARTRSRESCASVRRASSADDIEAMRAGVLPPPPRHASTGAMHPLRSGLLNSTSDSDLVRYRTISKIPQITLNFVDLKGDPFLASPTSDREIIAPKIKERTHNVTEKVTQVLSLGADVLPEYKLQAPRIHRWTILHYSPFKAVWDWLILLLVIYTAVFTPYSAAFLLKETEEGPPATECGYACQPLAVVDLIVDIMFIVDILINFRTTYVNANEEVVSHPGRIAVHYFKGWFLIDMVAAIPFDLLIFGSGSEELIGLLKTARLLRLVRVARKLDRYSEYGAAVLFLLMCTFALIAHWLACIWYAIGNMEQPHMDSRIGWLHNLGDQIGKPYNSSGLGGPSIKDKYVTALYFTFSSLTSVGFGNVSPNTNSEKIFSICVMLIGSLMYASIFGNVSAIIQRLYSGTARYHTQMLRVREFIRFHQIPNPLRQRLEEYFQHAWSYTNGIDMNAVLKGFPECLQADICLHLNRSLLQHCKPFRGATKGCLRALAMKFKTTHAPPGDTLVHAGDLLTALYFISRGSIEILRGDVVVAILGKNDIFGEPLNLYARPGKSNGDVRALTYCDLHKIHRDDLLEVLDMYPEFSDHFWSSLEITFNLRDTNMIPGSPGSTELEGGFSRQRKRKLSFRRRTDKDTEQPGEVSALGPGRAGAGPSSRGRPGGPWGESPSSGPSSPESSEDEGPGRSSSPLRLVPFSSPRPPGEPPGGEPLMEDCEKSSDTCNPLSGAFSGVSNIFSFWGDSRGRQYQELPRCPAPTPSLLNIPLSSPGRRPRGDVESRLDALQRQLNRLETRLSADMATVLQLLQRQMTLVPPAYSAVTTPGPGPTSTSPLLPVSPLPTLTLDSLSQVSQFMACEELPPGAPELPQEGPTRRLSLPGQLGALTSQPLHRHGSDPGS

As for `COc1ccc(-c2ccc3c(n2)N(C2=NC(=O)C(C)(C)S2)CCO3)cc1OC` [Compound I-330], the inhibition at 50 µM on PI-3 kinase γ [1] was 95%. This compound yielded a Ki at PI-3 kinase γ [2] of 27 nM.
For `O=C(O)c1ccc(Nc2ccc3c(n2)N(C(=O)Nc2ccccc2)CCO3)cc1` [Compound I-146], the inhibition at 50 µM at PI-3 kinase γ [1] is not below 95%. Also, the affinity on PI-3 kinase γ [2], expressed as Ki, was 46 nM. The “percentage of test compound remained after reacting for 30 minutes” value in data set [3] amounted to 100%.
As to `O=C(O)COc1ccccc1Nc1ccc2c(n1)N(C(=O)Nc1ccccc1)CCO2` [Compound I-248], the inhibition at 50 µM at PI-3 kinase γ [1] was not below 95%. Also, the affinity on PI-3 kinase γ [2] corresponds to a Ki of 25 nM. For the same compound, the solubility at 16 h in data set [4] is more than 50 µM.
For the compound `O=C(O)c1ccc(-c2ccc3c(n2)N(C(=O)Nc2ccccc2)CCO3)s1` [Compound I-109], the inhibition at 50 µM on PI-3 kinase γ [1] is not below 95%. Further, the solubility at 16 h in data set [4] is more than 50 µM. Also, in data set [5], the “hERG inhibition ratio for the maximum tail current (IKr)” value was determined as 1%.
As for `O=C(O)c1ccc(Nc2cnc3c(c2)OCCN3C(=O)Nc2ccccc2)cc1` [Compound I-139], the inhibition at 50 µM at PI-3 kinase γ [1] was not below 95%. Moreover, the solubility at 16 h in data set [4] was more than 50 µM. In data set [3], the “percentage of test compound remained after reacting for 30 minutes” value stood at 83%. Further, the “hERG inhibition ratio for the maximum tail current (IKr)” value in data set [5] is 8.7%.
Take `O=C(O)c1ccc(-c2ccc3c(n2)N(C(=O)Nc2cccnc2)CCO3)cc1` [Compound I-208]: on PI-3 kinase γ [1], the inhibition at 50 µM is not below 95%. Besides, on PI-3 kinase γ [2], affinity was put at a Ki of 31 nM.
In the case of `O=C(O)c1ccc(-c2ccc3c(n2)N(C(=O)Nc2ccccc2)CCO3)cc1` [Compound I-51], on PI-3 kinase γ [1], the inhibition at 50 µM was 93%.
Take `O=C(Nc1ccccc1)N1CCOc2cc(-c3ccc[nH]3)cnc21` [Compound I-274]: the inhibition at 50 µM at PI-3 kinase γ [1] is not below 95%.
Turning to `COc1cccc(NC(=O)N2CCOc3nc(-c4ccc(C(=O)O)cc4)ccc32)c1` [Compound I-265], on PI-3 kinase γ [1], the inhibition at 50 µM was 75%.
For `O=C(Nc1ccccc1)N1CCOc2cc(-c3cc[nH]n3)cnc21` [Compound I-269], the inhibition at 50 µM at PI-3 kinase γ [1] is 71%.
Consider `NC(=O)c1ccc(-c2ccc3c(n2)N(C(=O)Nc2ccccc2)CCO3)cc1` [Compound I-69], for which, on PI-3 kinase γ [1], the inhibition at 50 µM was found to be 73%.
As to `O=C(O)c1cncc(-c2ccc3c(n2)N(C(=O)Nc2ccccc2)CCO3)c1` [Compound I-184], the inhibition at 50 µM on PI-3 kinase γ [1] was not below 95%.
Same read-out and setting: to `O=C(Nc1ccccc1)N1CCOc2ccc(Nc3ccccn3)nc21` [Compound I-180] belongs not below 95%; to `CC(C)(C)OC(=O)c1ccc(Nc2ccc3c(n2)N(C(=O)Nc2ccccc2)CCO3)cc1` [Compound I-143], not below 95%; to `CC(C)(C)OC(=O)NCCOc1cccc(Nc2ccc3c(n2)N(C(=O)Nc2ccccc2)CCO3)c1` [Compound I-219], not below 95%.
Same read-out and setting: to `S=C(Nc1cccnc1)N1CCOc2cccnc21` [Compound I-5] belongs 90%; to `O=C(Nc1ccccc1)N1CCOc2cc(Nc3ccc4ncccc4c3)cnc21` [Compound I-316], 87%.
Same read-out and setting: next, `O=C(O)c1ccccc1Nc1cnc2c(c1)OCCN2C(=O)Nc1ccccc1` [Compound I-137]: not below 95%; `O=C(Nc1ccccc1)N1CCOc2cc(NCc3ccccc3)cnc21` [Compound I-131]: not below 95%; `O=C(O)CCNC(=O)c1cnc2c(c1)OCCN2C(=O)Nc1ccccc1` [Compound I-307]: 92%.
In the case of `O=C(O)Cc1cccc(-c2ccc3c(n2)N(C(=O)Nc2ccccc2)CCO3)c1` [Compound I-152], on PI-3 kinase γ [1], the inhibition at 50 µM is not below 95%.
Consider `O=C(Nc1ccccc1)N1CCOc2ccc(Cc3ccccc3)nc21` [Compound I-87], for which the inhibition at 50 µM at PI-3 kinase γ [1] was 75%.
Still for that read-out and setting: next, `CC1CN(C(=O)Nc2ccccc2)c2nc(-c3ccc(C(=O)O)cc3)ccc2O1` (stereo not shown) [Compound I-290]: 86%.

For the origin of these results see US20110172217A1, “RING-FUSED MORPHOLINE DERIVATIVE HAVING PI3K-INHIBITING ACTIVITY” (Shionogi & Co., Ltd., priority 2008, published 2011).
